Assay results reported in PubChem BioAssay (NCI).
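GI50 = concentration required for 50% inhibition of growth. TGI denotes the concentration required for complete inhibition of growth.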

Experiments:
Test in all cases: inhibition of tumour cell growth, NCI panel, 384-well format
A498 renal = test system: A498 renal
A549 NSCLC = test system: A549 NSCLC
ACHN renal = test system: ACHN renal
BT-549 breast = test system: BT-549 breast
CAKI-1 renal = test system: CAKI-1 renal
COLO 205 colon = test system: COLO 205 colon
DU-145 prostate = test system: DU-145 prostate
EKVX NSCLC = test system: EKVX NSCLC
HCC-2998 colon = test system: HCC-2998 colon
HCT-116 colon = test system: HCT-116 colon
HCT-15 colon = test system: HCT-15 colon
HL-60(TB) leukemia = test system: HL-60(TB) leukemia
HOP-62 NSCLC = test system: HOP-62 NSCLC
HOP-92 NSCLC = test system: HOP-92 NSCLC
HS 578T breast = test system: HS 578T breast
HT29 colon = test system: HT29 colon
IGROV1 ovarian = test system: IGROV1 ovarian
KM12 colon = test system: KM12 colon
LOX IMVI melanoma = test system: LOX IMVI melanoma
M14 melanoma = test system: M14 melanoma
MALME-3M melanoma = test system: MALME-3M melanoma
MCF7 breast = test system: MCF7 breast
MDA-MB-231 breast = test system: MDA-MB-231 breast
MDA-MB-435 melanoma = test system: MDA-MB-435 melanoma
MDA-MB-468 breast = test system: MDA-MB-468 breast
MOLT-4 leukemia = test system: MOLT-4 leukemia
NCI-H226 lung = test system: NCI-H226 lung
NCI-H23 lung = test system: NCI-H23 lung
NCI-H322M lung = test system: NCI-H322M lung
NCI-H460 NSCLC = test system: NCI-H460 NSCLC
NCI-H522 lung = test system: NCI-H522 lung
NCI/ADR-RES ovarian = test system: NCI/ADR-RES ovarian
OVCAR-3 ovarian = test system: OVCAR-3 ovarian
OVCAR-4 ovarian = test system: OVCAR-4 ovarian
OVCAR-5 ovarian = test system: OVCAR-5 ovarian
OVCAR-8 ovarian = test system: OVCAR-8 ovarian
PC-3 prostate = test system: PC-3 prostate
RPMI-8226 leukemia = test system: RPMI-8226 leukemia
RXF 393 renal = test system: RXF 393 renal
SF-268 CNS = test system: SF-268 CNS
SF-295 CNS = test system: SF-295 CNS
SF-539 CNS = test system: SF-539 CNS
SK-MEL-28 melanoma = test system: SK-MEL-28 melanoma
SK-MEL-5 melanoma = test system: SK-MEL-5 melanoma
SN12C renal = test system: SN12C renal
SNB-19 CNS = test system: SNB-19 CNS
SNB-75 CNS = test system: SNB-75 CNS
SR leukemia = test system: SR leukemia
T-47D breast = test system: T-47D breast
TK-10 renal = test system: TK-10 renal
U251 glioblastoma = test system: U251 glioblastoma
UACC-257 melanoma = test system: UACC-257 melanoma
UACC-62 melanoma = test system: UACC-62 melanoma

Cn1cc(-c2[nH]c3cc(NC(=O)[C@H](N)C4CCCCC4)cc4c3c2C=NNC4=O)cn1
GI50 (A498 renal): 91.6 nM | TGI (A498 renal): 277 nM | GI50 (A549 NSCLC): 4660 nM | TGI (A549 NSCLC): 17300 nM | GI50 (ACHN renal): 314 nM | TGI (ACHN renal): 954 nM | GI50 (BT-549 breast): 152 nM | TGI (BT-549 breast): 362 nM | GI50 (CAKI-1 renal): 531 nM | TGI (CAKI-1 renal): 12400 nM | GI50 (COLO 205 colon): 489 nM | TGI (COLO 205 colon): 1710 nM | GI50 (DU-145 prostate): 359 nM | TGI (DU-145 prostate): 12400 nM | GI50 (EKVX NSCLC): 538 nM | TGI (EKVX NSCLC): 11400 nM | GI50 (HCC-2998 colon): 42 nM | TGI (HCC-2998 colon): 227 nM | GI50 (HCT-116 colon): 427 nM | TGI (HCT-116 colon): 6280 nM | GI50 (HCT-15 colon): 2720 nM | TGI (HCT-15 colon): 9180 nM | GI50 (HL-60(TB) leukemia): 204 nM | TGI (HL-60(TB) leukemia): 353 nM | GI50 (HOP-62 NSCLC): 203 nM | TGI (HOP-62 NSCLC): 483 nM | GI50 (HOP-92 NSCLC): 111 nM | TGI (HOP-92 NSCLC): 5430 nM | GI50 (HS 578T breast): 191 nM | TGI (HS 578T breast): 847 nM | GI50 (HT29 colon): 1030 nM | TGI (HT29 colon): 2580 nM | GI50 (IGROV1 ovarian): 275 nM | TGI (IGROV1 ovarian): 960 nM | GI50 (KM12 colon): 466 nM | TGI (KM12 colon): 8760 nM | GI50 (LOX IMVI melanoma): 312 nM | TGI (LOX IMVI melanoma): 1060 nM | GI50 (M14 melanoma): 195 nM | TGI (M14 melanoma): 402 nM | GI50 (MALME-3M melanoma): 781 nM | TGI (MALME-3M melanoma): 17400 nM | GI50 (MCF7 breast): 176 nM | TGI (MCF7 breast): 12700 nM | GI50 (MDA-MB-231 breast): 599 nM | TGI (MDA-MB-231 breast): 9620 nM | GI50 (MDA-MB-435 melanoma): 166 nM | TGI (MDA-MB-435 melanoma): 340 nM | GI50 (MDA-MB-468 breast): 186 nM | TGI (MDA-MB-468 breast): 426 nM | GI50 (MOLT-4 leukemia): 201 nM | TGI (MOLT-4 leukemia): 347 nM | GI50 (NCI-H226 lung): 636 nM | TGI (NCI-H226 lung): 3950 nM | GI50 (NCI-H23 lung): 276 nM | TGI (NCI-H23 lung): 1740 nM | GI50 (NCI-H322M lung): 198 nM | TGI (NCI-H322M lung): 894 nM | GI50 (NCI-H460 NSCLC): 3090 nM | TGI (NCI-H460 NSCLC): 11100 nM | GI50 (NCI-H522 lung): 219 nM | TGI (NCI-H522 lung): 627 nM | GI50 (NCI/ADR-RES ovarian): 4970 nM | TGI (NCI/ADR-RES ovarian): 23100 nM | GI50 (OVCAR-3 ovarian): 49.6 nM | TGI (OVCAR-3 ovarian): 209 nM | GI50 (OVCAR-4 ovarian): 29.6 nM | TGI (OVCAR-4 ovarian): 93.9 nM | GI50 (OVCAR-5 ovarian): 326 nM | TGI (OVCAR-5 ovarian): 953 nM | GI50 (OVCAR-8 ovarian): 153 nM | TGI (OVCAR-8 ovarian): 359 nM | GI50 (PC-3 prostate): 768 nM | TGI (PC-3 prostate): 13400 nM | GI50 (RPMI-8226 leukemia): 1920 nM | TGI (RPMI-8226 leukemia): 3370 nM | GI50 (RXF 393 renal): 211 nM | TGI (RXF 393 renal): 689 nM | GI50 (SF-268 CNS): 169 nM | TGI (SF-268 CNS): 10900 nM | GI50 (SF-295 CNS): 339 nM | TGI (SF-295 CNS): 2300 nM | GI50 (SF-539 CNS): 38.1 nM | TGI (SF-539 CNS): 156 nM | GI50 (SK-MEL-28 melanoma): 761 nM | TGI (SK-MEL-28 melanoma): 16400 nM | GI50 (SK-MEL-5 melanoma): 175 nM | TGI (SK-MEL-5 melanoma): 407 nM | GI50 (SN12C renal): 200 nM | TGI (SN12C renal): 856 nM | GI50 (SNB-19 CNS): 299 nM | TGI (SNB-19 CNS): 1090 nM | GI50 (SNB-75 CNS): 506 nM | TGI (SNB-75 CNS): 2990 nM | TGI (SR leukemia): 27.2 nM | GI50 (T-47D breast): 12200 nM | TGI (T-47D breast): 24700 nM | GI50 (TK-10 renal): 222 nM | TGI (TK-10 renal): 515 nM | GI50 (U251 glioblastoma): 320 nM | TGI (U251 glioblastoma): 1520 nM | GI50 (UACC-257 melanoma): 1420 nM | TGI (UACC-257 melanoma): 6260 nM | GI50 (UACC-62 melanoma): 486 nM | TGI (UACC-62 melanoma): 18200 nM
